In EP4800013A1, “PARG INHIBITOR” (Shanghai Qilu Pharmaceutical Research and Development …, priority 2023, dated 2025):
Like-named read-outs stand apart in the source and are kept apart here.

Experiments:
[1] = target: T1, PARG (Homo sapiens, UniProt Q86W56); assay: Enzymatic inhibitory activity against PARG, HTRF assay; assay type: biochemical
T1 construct: made in house
Outline: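 Purified PARG pre-incubated with compounds (top 10 µM, 3- to 5-fold dilutions, duplicates) 15 min at room temperature, then PARylated PARP1 substrate added for 60 min in Tris pH 7.4 buffer with DTT, EDTA/EGTA, KCl. HTRF (His-Tb/SA-XL665) read-out; IC50 by four-parameter logistic fit, normalised to DMSO and control-inhibitor wells.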

[2] = tested on: KURAMOCHI cells; assay: Inhibition of proliferation of KURAMOCHI cells (CellTiter-Glo, intracellular ATP); assay type: cell-based; conditions: 168 h, incubated for 7 days, read-out: IC50 against KURAMOCHI cells
Outline: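 KURAMOCHI cells seeded at 4000/well, incubated overnight, then treated with 9-point 1:4 compound series from 10 µM (0.5% DMSO) for 7 days at 37°C, 5% CO2. Viability read by CellTiter-Glo luminescence; inhibition normalised to medium-only (100%) and DMSO (0%) controls, IC50 from variable-slope four-parameter fit.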

[3] = HTRF, PARylated PARP1 protein as substrate, 60 minutes at room temperature, read-out: IC50 against PARG enzyme

T1 sequence (Q86W56 whole entry): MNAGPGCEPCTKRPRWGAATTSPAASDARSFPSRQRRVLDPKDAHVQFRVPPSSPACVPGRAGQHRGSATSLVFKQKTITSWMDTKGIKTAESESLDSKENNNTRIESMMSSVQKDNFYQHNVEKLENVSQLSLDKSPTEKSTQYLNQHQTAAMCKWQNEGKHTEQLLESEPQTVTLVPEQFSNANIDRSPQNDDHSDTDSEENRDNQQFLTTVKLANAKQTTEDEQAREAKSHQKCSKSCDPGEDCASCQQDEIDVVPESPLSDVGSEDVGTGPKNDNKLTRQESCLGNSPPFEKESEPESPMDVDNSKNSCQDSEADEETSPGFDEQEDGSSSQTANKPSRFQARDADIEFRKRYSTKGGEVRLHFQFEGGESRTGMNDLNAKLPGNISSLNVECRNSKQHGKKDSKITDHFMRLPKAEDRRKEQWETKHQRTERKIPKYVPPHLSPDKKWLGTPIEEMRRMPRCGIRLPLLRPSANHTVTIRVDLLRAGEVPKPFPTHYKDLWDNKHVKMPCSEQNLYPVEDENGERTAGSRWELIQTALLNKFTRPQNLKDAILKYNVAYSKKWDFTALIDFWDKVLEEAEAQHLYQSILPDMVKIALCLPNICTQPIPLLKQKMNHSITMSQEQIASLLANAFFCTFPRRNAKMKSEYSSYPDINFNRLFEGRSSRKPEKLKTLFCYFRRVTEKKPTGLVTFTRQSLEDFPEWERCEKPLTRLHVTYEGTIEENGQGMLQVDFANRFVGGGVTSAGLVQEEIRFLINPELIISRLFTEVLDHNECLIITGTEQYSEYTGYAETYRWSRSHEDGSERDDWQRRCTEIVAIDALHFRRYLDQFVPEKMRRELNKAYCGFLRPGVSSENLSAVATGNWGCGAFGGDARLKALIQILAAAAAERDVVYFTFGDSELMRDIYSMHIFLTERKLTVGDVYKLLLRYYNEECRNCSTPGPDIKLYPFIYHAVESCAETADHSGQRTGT

Row | Structure (SMILES) | IC50 [1, 3] | IC50 [2] | IC50 [1]
1 | C[C@H]1CN(c2cc(S(=O)(=O)NC3(C)CC3)cc3c2nc(C2CCCCO2)n3-c2nnc(C(F)F)s2)C[C@H](C)N1 (some centres unmarked) [Compound 077X] | 21.3 nM | 16 nM | 
2 | C[C@H]1CN(c2cc(S(=O)(=O)NC3(C)CC3)cc3c2nc(C2CC(F)(F)CO2)n3-c2nnc(C(F)F)s2)C[C@H](C)N1 (some centres unmarked) [Compound 079J] | 1.8 nM | 4 nM | 
3 | C[C@H]1CN(c2cc(S(=O)(=O)NC3(C)CC3)cc3c2nc(C2CC4(CC4)CO2)n3-c2nnc(C(F)F)s2)C[C@H](C)N1 (some centres unmarked) [Compound 079M] | 3.8 nM | 15 nM | 
4 | C[C@H]1CN(c2cc(S(=O)(=O)NC3(C)CC3)cn3c(-c4nnc(C(F)F)s4)c([C@H]4CCCO4)nc23)C[C@H](C)N1 [Compound 080B1] | 2.2 nM | 4 nM | 
5 | C[C@H]1CN(c2cc(S(=O)(=O)NC3(C)CC3)cn3c(-c4nnc(C(F)F)s4)c(C4CCCO4)nc23)C[C@H](C)N1 (some centres unmarked) [Compound 080B] | 0.5 nM | 1 nM | 
6 | C[C@H]1CN(c2cc(S(=O)(=O)NC3(C)CC3)cn3c(-c4nnc(C(F)F)s4)cnc23)C[C@H](C)N1 [Compound 080J] | 2.4 nM | 5 nM | 
7 | C[C@H]1CN(c2cc(S(=O)(=O)NC3(C)CC3)cn3c(-c4nnc(C(F)F)s4)c(Cl)nc23)C[C@H](C)N1 [Compound 080K] | 1.7 nM | 4 nM | 
8 | C[C@H]1CN(c2cc(S(=O)(=O)NC3(C)CC3)cc3c(-c4nnc(C(F)F)s4)c([C@H]4CCCO4)nn23)C[C@H](C)N1 [Compound 083A1] | 14.6 nM | 25 nM | 
9 | C[C@H]1CN(c2cc(S(=O)(=O)NC3(C)CC3)cc3c(-c4nnc(C(F)F)s4)c([C@@H]4CCCO4)nn23)C[C@H](C)N1 [Compound 083A2] | 1 nM | 3 nM | 
10 | C[C@H]1CN(c2cc(S(=O)(=O)NC3(C)CC3)cc3c(-c4nnc(C(F)F)s4)c(C4CCCO4)nn23)C[C@H](C)N1 (some centres unmarked) [Compound 083A] | 2.1 nM | 4 nM | 
11 | COC(C)(C)c1nc2n(-c3nnc(C(F)F)s3)c3cc(S(=O)(=O)NC4(C)CC4)cc(N4C[C@H](C)N[C@@H](C)C4)c3n2n1 [Compound 084H] | 0.7 nM | 3 nM | 
12 | C[C@H]1CN(c2cc(S(=O)(=O)NC3(C)CC3)cc3c2n2nc(C(=O)NC4CC4)nc2n3-c2nnc(C(F)F)s2)C[C@H](C)N1 [Compound 084J] | 0.7 nM | 16 nM | 
13 | C[C@H]1CN(c2cc(S(=O)(=O)NC3(C)CC3)cc3c2n2nc(C(=O)NC4(C)CC4)nc2n3-c2nnc(C(F)F)s2)C[C@H](C)N1 [Compound 084K] | 0.7 nM | 9 nM | 
14 | C[C@H]1CN(c2cc(S(=O)(=O)NC3(C)CC3)cc3c2n2nc(NC(=O)C4CC4)nc2n3-c2nnc(C(F)F)s2)C[C@H](C)N1 [Compound 084L] | 1.1 nM | 29 nM | 
15 | C[C@H]1CN(c2cc(S(=O)(=O)NC3(C)CC3)cc3c2n2nc(N4CCCC4=O)nc2n3-c2nnc(C(F)F)s2)C[C@H](C)N1 [Compound 084M] | 0.8 nM | 9 nM | 
16 | CC(C)C(=O)N1CCN(c2cc(S(=O)(=O)NC3(C)CC3)cc3c2[nH]c(=O)n3-c2nnc(C(F)F)s2)CC1 [Compound A002] | 16.4 nM | 86 nM | 
17 | CC(C)C(=O)N1CCN(c2cc(S(=O)(=O)NC3(C)CC3)cc3c2n(C)c(=O)n3-c2nnc(C(F)F)s2)CC1 [Compound A003] | 5.4 nM | 13 nM | 
18 | CN(C)C(=O)N1CCN(c2cc(S(=O)(=O)NC3(C)CC3)cc3c2[nH]c(=O)n3-c2nnc(C(F)F)s2)CC1 [Compound A004] | 10.7 nM | 80 nM | 
19 | Cn1c(=O)n(-c2nnc(C(F)F)s2)c2cc(S(=O)(=O)NC3(C)CC3)cc(N3CCNCC3)c21 [Compound A005] | 30.4 nM | 45 nM | 
20 | CN(C)C(=O)N1CCN(c2cc(S(=O)(=O)NC3(C)CC3)cc3c2n(C)c(=O)n3-c2nnc(C(F)F)s2)CC1 [Compound A006] | 3.7 nM | 8 nM | 
21 | CN(C)C(=O)N1CCN(c2cc(S(=O)(=O)NC3(C#N)CC3)cc3c2n(C)c(=O)n3-c2nnc(C(F)F)s2)CC1 [Compound A013] | 2.9 nM | 13 nM | 
22 | CC(C)C(=O)N1CCN(c2cc(S(=O)(=O)NC3(C#N)CC3)cc3c2n(C)c(=O)n3-c2nnc(C(F)F)s2)CC1 [Compound A014] | 12.3 nM | 37 nM | 
23 | CC(C)n1c(=O)n(-c2nnc(C(F)F)s2)c2cc(S(=O)(=O)NC3(C)CC3)cc(N3CCN(C(=O)N(C)C)CC3)c21 [Compound A018] | 34.1 nM | 7 nM | 
24 | CC(C)C(=O)N1CCN(c2cc(S(=O)(=O)NC3(C)CC3)cc3c2n(C(C)C)c(=O)n3-c2nnc(C(F)F)s2)CC1 [Compound A019] | 18.1 nM | 16 nM | 
25 | CC(C)S(=O)(=O)N1CCN(c2cc(S(=O)(=O)NC3(C)CC3)cc3c2n(C)c(=O)n3-c2nnc(C(F)F)s2)CC1 [Compound A023] | 1.5 nM | 4 nM | 

Row | Structure (SMILES) | IC50 [1, 3] | IC50 [2] | IC50 [1]
26 | Cn1c(=O)n(-c2nnc(C(F)F)s2)c2cc(S(=O)(=O)NC3(C)CC3)cc(N3CCN(C(=O)N4CCCC4)CC3)c21 [Compound A027] | 3.8 nM | 5 nM | 
27 | COC(=O)N1CCN(c2cc(S(=O)(=O)NC3(C)CC3)cc3c2n(C)c(=O)n3-c2nnc(C(F)F)s2)CC1 [Compound A028] | 19 nM | 48 nM | 
28 | Cn1c(=O)n(-c2nnc(C(F)F)s2)c2cc(S(=O)(=O)NC3(C)CC3)cc(N3CCN(C(=O)C(C)(C)F)CC3)c21 [Compound A029] | 3 nM | 8 nM | 
29 | Cn1c(=O)n(-c2nnc(C(F)F)s2)c2cc(S(=O)(=O)NC3(C)CC3)cc(N3CCN(C(=O)C(C)(C)O)CC3)c21 [Compound A030] | 18.2 nM | 10 nM | 
30 | Cn1c(=O)n(-c2nnc(C(F)F)s2)c2cc(S(=O)(=O)NC3(CF)CC3)cc(N3CCNCC3)c21 [Compound A031] | 35.2 nM | 63 nM | 
31 | CN(C)C(=O)N1CCN(c2cc(S(=O)(=O)NC3(CF)CC3)cc3c2n(C)c(=O)n3-c2nnc(C(F)F)s2)CC1 [Compound A032] | 2.4 nM | 5 nM | 
32 | CC(C)C(=O)N1CCN(c2cc(S(=O)(=O)NC3(CF)CC3)cc3c2n(C)c(=O)n3-c2nnc(C(F)F)s2)CC1 [Compound A033] | 4 nM | 9 nM | 
33 | CN(C)C(=O)N1CCN(c2cc(S(=O)(=O)NC3(C)COC3)cc3c2n(C)c(=O)n3-c2nnc(C(F)F)s2)CC1 [Compound A036] | 6.8 nM | 12 nM | 
34 | CC(C)C(=O)N1CCN(c2cc(S(=O)(=O)NC3(C)COC3)cc3c2n(C)c(=O)n3-c2nnc(C(F)F)s2)CC1 [Compound A037] | 6.8 nM | 14 nM | 
35 | CN(C)C(=O)N1CC=C(c2cc(S(=O)(=O)NC3(C)CC3)cc3c2n(C)c(=O)n3-c2nnc(C(F)F)s2)CC1 [Compound A038] | 5.2 nM | 7 nM | 
36 | CN(C)C(=O)N1CCC(c2cc(S(=O)(=O)NC3(C)CC3)cc3c2n(C)c(=O)n3-c2nnc(C(F)F)s2)CC1 [Compound A039] | 3.5 nM | 7 nM | 
37 | Cn1ccnc1N1CCN(c2cc(S(=O)(=O)NC3(C)CC3)cc3c2n(C)c(=O)n3-c2nnc(C(F)F)s2)CC1 [Compound A040] | 5 nM | 9 nM | 
38 | C=CCn1c(=O)n(-c2nnc(C(F)F)s2)c2cc(S(=O)(=O)NC3(C#N)CC3)cc(N3CCN(C(=O)N(C)C)CC3)c21 [Compound A041] | 4.4 nM | 11 nM | 
39 | [2H]C([2H])([2H])N(C(=O)N1CCN(c2cc(S(=O)(=O)NC3(C#N)CC3)cc3c2n(CC=C)c(=O)n3-c2nnc(C(F)F)s2)CC1)C([2H])([2H])[2H] [Compound A042] | 5.1 nM | 6 nM | 
40 | CCn1c(=O)n(-c2nnc(C(F)F)s2)c2cc(S(=O)(=O)NC3(C#N)CC3)cc(N3CCN(C(=O)N(C)C)CC3)c21 [Compound A043] | 8 nM | 11 nM | 
41 | CC(C)n1c(=O)n(-c2nnc(C(F)F)s2)c2cc(S(=O)(=O)NC3(C#N)CC3)cc(N3CCN(C(=O)N(C)C)CC3)c21 [Compound A045] | 13.9 nM | 16 nM | 
42 | CC(C)n1c(=O)n(-c2nnc(C(F)F)s2)c2cc(S(=O)(=O)NC3(C#N)CC3)cc(N3CCN(S(=O)(=O)C(C)C)CC3)c21 [Compound A046] | 5.5 nM | 8 nM | 
43 | CC(C)n1c(=O)n(-c2nnc(C(F)F)s2)c2cc(S(=O)(=O)NC3(C#N)CC3)cc(N3CCN(C(=O)N4CCCC4)CC3)c21 [Compound A047] |  | 13 nM | 15 nM
44 | CC(C)n1c(=O)n(-c2nnc(C(F)F)s2)c2cc(S(=O)(=O)NC3(C#N)CC3)cc(N3CCN(C(=O)C(C)(C)F)CC3)c21 [Compound A048] | 34.8 nM | 27 nM | 
45 | CC(C)n1c(=O)n(-c2nnc(C(F)F)s2)c2cc(S(=O)(=O)NC3(C#N)CC3)cc(N3CCN(C(=O)C(C)(C)O)CC3)c21 [Compound A049] | 15.7 nM | 50 nM | 
46 | CC(C)C(=O)N1CCN(c2cc(S(=O)(=O)NC3(C#N)CC3)cc3c2n(C(C)C)c(=O)n3-c2nnc(C(F)F)s2)CC1 [Compound A050] | 22.5 nM | 20 nM | 
47 | C=CCn1c(=O)n(-c2nnc(C(F)F)s2)c2cc(S(=O)(=O)NC3(C#N)CC3)cc(N3CCN(C(=O)C(C)C)CC3)c21 [Compound A051] | 7.5 nM | 12 nM | 
48 | C=CCn1c(=O)n(-c2nnc(C(F)F)s2)c2cc(S(=O)(=O)NC3(C#N)CC3)cc(N3CCN(S(=O)(=O)C(C)C)CC3)c21 [Compound A052] | 1.6 nM | 2 nM | 
49 | C=CCn1c(=O)n(-c2nnc(C(F)F)s2)c2cc(S(=O)(=O)NC3(C#N)CC3)cc(N3CCN(C(=O)C(C)(C)O)CC3)c21 [Compound A053] | 6.7 nM | 37 nM | 
